In patent publication US20250215026A1, “Deuterated Compounds, Compositions and Uses” (BioJive LLC, priority 2018, published 2025):

Legend:
[1] = Liposome leakage of sulforhodamine B by fluorescence correlation spectroscopy, +/- Fe2+/ascorbate
Protocol: The equipment set up and peak intensity analysis was conducted as described in Perevoshchikova, et al., Biochim. Biophys. Acta 1778, 2182-2190 (2008). Briefly, fluorescence excitation and detection utilized a Nd: YAG solid state laser with a 532-nm beam attached to an Olympus IMT-2 epifluorescent inverted microscope equipped with a 40×, NA 1.2 water immersion objective (Carl Zeiss, Jena, Germany). The fluorescence light passed through an appropriate dichroic beam splitter and a long-pass filter and was imaged onto a 50-μm core fiber coupled to an avalanche photodiode (SPCM-AQR-13-FC, PerkinElmer Optoelectronics, Vaudreuil, Quebec, Canada). The signal from an output was sent to a PC using a fast interface card (Flex02-01D/C, Correlator.com, Bridgewater, NJ). The data acquisition time was 30 s. The fluorescence was recorded from the confocal volume located at about 50 μm above the coverslip surface with 50 μL of the buffer solution added. Most of the data were collected under the conditions of stirring a suspension by a paddle-shaped 3-mm plastic bar rotated at 600 rpm. To calibrate the setup, the fluorescence autocorrelation function of Rhodamine 6G solution was recorded. Assuming the diffusion coefficient of the dye to be 2.5×10^−6 cm^2/s, the value of the confocal radius is circa ω=0.42 μm. The correlated fluorescence emission signals were fitted to the three-dimensional autocorrelation function as described in Hess, et al., Biochemistry 41; 697-705 (2002).
SRB-loaded liposomes were suspended in an aqueous solution of Fe^2+ and ascorbate […], prepared from lipid mixtures containing linoleoyl stearoyl phosphatidylcholine (H-Lin-PC) as the bulk lipid (unless otherwise stated) with various contents of a series of 1-stearoyl phosphatidylcholines, including compounds of Formula (II). To measure G(τ→0) more precisely, the FCS experiments were performed under stirring conditions. […] The reduction of the G(τ→0) amplitude apparently reflected an increase in the number of fluorescent particles due to SRB release from liposomes. […]

[2] = Incorporation of orally dosed D-DHA into retina by nanoSIMS; type: in vivo, mouse; details: after three days of dosing
Protocol: In this example, D-DHA (20 mg; 1 mg/ul) was administered orally as ethyl ester to a wild-type mouse by gavage for three consecutive days in addition to unrestricted regular DHA-free rodent diet. Mouse retina was harvested and then fixed and embedded in resin. Retinal sections were analyzed with nanoscale secondary ion mass spectrometry (nanoSIMS) to determine the incorporation rates of D-DHA into retinal cells by measuring the relative enrichment of DHA-bound deuterium over its natural tissue abundance. The D-DHA/DHA substitution rate of natural DHA in the outer segments was calculated by the ratio of increased deuterium abundance vs. total hydrogen contribution of DHA in outer segments.

[2H]C([2H])(/C=C\CCCCC)/C=C\CCCCCCCC(=O)O[C@H](COC(=O)CCCCCCCCCCCCCCCCC)COP(=O)([O-])OCC[N+](C)(C)C [D2-Lin-PC, 1-stearoyl-2-(11,11-D2-linoleyl)-sn-glycero-3-phosphatidylcholine]
effect of incubation with Fe/ascorbate on G(τ→0) amplitude of SRB ([1]; 10% D2-Lin-PC in H-Lin-PC, 0, 10, 20 min, FIG. 1A): led to a decrease in the G(τ→0) amplitude | effect of incubation with Fe2+/ascorbate on G(τ→0) amplitude of SRB ([1]; 25% D2-Lin-PC in H-Lin-PC, FIG. 1B): did not reduce the amplitude of G(τ→0) or reduced it to a very low extent | difference between extent of liposome leakage α with and without Fe2+/ascorbate ([1]; 100% of the deuterated lipid, FIG. 2A): very low | relative strength of protection of H-Lin-PC bulk: % in bilayer (FIG. 6): 25% | % of deuterated lipid giving very low level of ΔA234 and very low difference in α +/- Fe2+/ascorbate (t=10 min, in H-Lin-PC, FIG. 3): ≥ 20%

[2H]C([2H])(/C=C\CC)/C=C\C/C=C\CCCCCCCC(=O)O[C@H](COC(=O)CCCCCCCCCCCCCCCCC)COP(=O)([O-])OCC[N+](C)(C)C [D2-Lnn-PC, 1-stearoyl-2-(14,14-D2-linolenyl)-sn-glycero-3-phosphatidylcholine]
percentage needed for protection of H-Lin-PC matrix, relative to D4-Lnn-PC (FIG. 6): about twofold as high as that of D4-Lnn-PC

[2H]C([2H])(/C=C\CC)/C=C\C([2H])([2H])/C=C\CCCCCCCC(=O)O[C@H](COC(=O)CCCCCCCCCCCCCCCCC)COP(=O)([O-])OCC[N+](C)(C)C [D4-Lnn-PC, 1-stearoyl-2-(11,11,14,14-D4-linolenyl)-sn-glycero-3-phosphatidylcholine]
relative strength of protection of H-Lin-PC bulk: % in bilayer (FIG. 6): 17%

[2H]C([2H])(/C=C\CCCCC)/C=C\C([2H])([2H])/C=C\C([2H])([2H])/C=C\CCCC(=O)O[C@H](COC(=O)CCCCCCCCCCCCCCCCC)COP(=O)([O-])OCC[N+](C)(C)C [D6-Ara-PC, 1-stearoyl-2-(7,7,10,10,13,13-D6-arachidonoyl)-sn-glycero-3-phosphatidylcholine]
relative strength of protection of H-Lin-PC bulk: % in bilayer (FIG. 6): 12%

[2H]C([2H])(/C=C\CC)/C=C\C([2H])([2H])/C=C\C([2H])([2H])/C=C\C([2H])([2H])/C=C\CCCC(=O)O[C@@H](COC(=O)CCCCCCCCCCCCCCCCC)COP(=O)([O-])OCC[N+](C)(C)C [D8-EPA-PC, 1-stearoyl-2-(7,7,10,10,13,13,16,16-D8-eicosapentaenoyl)-sn-glycero-3-phosphatidylcholine]
relative strength of protection of H-Lin-PC bulk: % in bilayer (FIG. 6): 10%

[2H]C([2H])(/C=C\CC)/C=C\C([2H])([2H])/C=C\C([2H])([2H])/C=C\C([2H])([2H])/C=C\C([2H])([2H])/C=C\CCC(=O)O[C@H](COC(=O)CCCCCCCCCCCCCCCCC)COP(=O)([O-])OCC[N+](C)(C)C [D10-DHA-PC, 1-stearoyl-2-(6,6,9,9,12,12,15,15,18,18-D10-docosahexaenoyl)-sn-glycero-3-phosphatidylcholine]
protection, fold stronger than for D6-Ara (diene conjugates assay, H-Lin-PC matrix): 10 fold | level suppressing lipid autooxidation, diene conjugates assay (in the H-Lin-PC matrix, FIG. 6): ≤ 1% | protection from oxidative stress compared to other deuterated lipids (undeuterated H-Lin-PC matrix, FIG. 6): substantially enhanced protection from oxidative stress

[2H]C([2H])(/C=C\CC)/C=C\C([2H])([2H])/C=C\C([2H])([2H])/C=C\C([2H])([2H])/C=C\C([2H])([2H])/C=C\CCC(=O)OCC [D-DHA, 6,6,9,9,12,12,15,15,18,18-D10-docosahexaenoic acid ethyl ester]
level reached in retinal tissues after oral dosing [2]: above 1%
